Experimental data from patent publication US20260049089A1, “KRAS INHIBITOR COMPOUND” (SHANGHAI APEIRON THERAPEUTICS COMPANY LIMITED, priority 2022, published 2026).
Like-named read-outs stand apart in the source and are kept apart here.

How the values were obtained:
[1] = biological target: KRAS G12D GTP protein (His-tag-KRAS G12D) (Homo sapiens (Human), UniProt P01116, G12D); assay: AlphaLISA compound screening assay, KRAS-GTP protein format; conditions: AlphaLISA with cRAF, read-out: GTP-format IC50 (nM)/ Binding assay
Sequence of KRAS G12D GTP protein (His-tag-KRAS G12D) (P01116-2 other isoform, or with tags, fused parts or gaps G12D): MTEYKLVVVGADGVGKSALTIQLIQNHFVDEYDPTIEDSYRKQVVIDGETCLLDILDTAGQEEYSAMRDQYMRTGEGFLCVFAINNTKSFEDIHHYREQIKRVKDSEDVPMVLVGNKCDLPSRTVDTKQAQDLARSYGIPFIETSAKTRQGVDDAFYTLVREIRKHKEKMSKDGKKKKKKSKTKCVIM

[2] = biological target: KRAS G12D GDP protein (His-tag-KRAS G12D) (Homo sapiens (Human), UniProt P01116, G12D); assay: AlphaLISA compound screening assay, KRAS-GDP protein format; conditions: AlphaLISA with SOS1, GTP, cRAF, read-out: GDP-format IC50 (nM)/ Binding assay
Sequence of KRAS G12D GDP protein (His-tag-KRAS G12D) (P01116-2 other isoform, or with tags, fused parts or gaps G12D): as above
Description: • Buffer 1: Composition and final concentrations: 25 mM HEPES, pH 7.5; 10 mM MgCl2; 0.01% Triton X-100. • Buffer 2: Composition and final concentrations: 25 mM HEPES, pH 7.5; 10 mM MgCl2; 0.01% Triton X-100; 1 mM DTT.
• 4> Use the ECHO555 automated liquid handler to prepare compounds. Test concentrations: The maximum compound concentration is 10 μM or 1 μM, serially diluted 3-fold, with 10 concentrations tested. Each concentration is tested in duplicate, with 0.5% DMSO as the solvent. • 5> High Signal Control Group (High Control): 30 replicates with 0.5% DMSO. KRAS protein is included in the reaction, representing 0% inhibition • 6> Low Signal Control Group (Low Control): 30 replicates with 0.5% DMSO. KRAS protein is not involved in the reaction, representing 100% inhibition
d. KRAS-GDP Protein Assay Procedure • 6> Add 5 μL of KRAS solution prepared with Buffer 1 to each well of the high-signal control group and compound test wells. Add 5 μL of Buffer 1 to each well of the low-signal control group. […] Incubate at room temperature for 1 hour. • 10> Measure the signal values using an EnVision plate reader. […] Incubate at room temperature for 1 hour. • 10> Measure the signal values using an EnVision plate reader. […] Incubate at room temperature for 1 hour. • 10> Measure the signal values using an EnVision plate reader. […]

[3] = tested on: pERK in AsPC-1 cells; assay: ERK phosphorylation cell assay, AsPC-1; format: cell-based; conditions: read-out: pERK AsPC-1_IC50
[4] = tested on: AsPC-1 cells; assay: 3D cell proliferation assay (CellTiter-Glo 3D), AsPC-1; format: cell-based; conditions: 5 days, read-out: 3D Proliferation Inhibition AsPC-1_IC50
Description: (§1) Using a nanoliter liquid handling system (LABCYTE, P-0200), the diluted test compounds were added to a 384-well low-adsorption cell culture plate. Cells were seeded into the wells, and the plate was placed in an incubator at 37° C. with 5% CO2. After co-incubating the compounds and cells for 5 days, CellTiter-Glo® 3D reagent was added. Luminescence values were measured using an EnVision Multilabel Plate Reader (luminescence is proportional to the ATP content in the system, and ATP content directly reflects the number of viable cells). Finally, the IC50 values (half-maximal inhibitory concentrations) of the compounds were determined using non-linear fitting equations in XLFit software with the following parameters: […]
(§2) X: Logarithm of compound concentration • Y: Inhibition rate (%)
(§3) [formula] • Negative control: DMSO • Positive control: Medium only

[5] = biological target: KRAS G12D GCP protein (His-tag-KRAS G12D) (Homo sapiens (Human), UniProt P01116, G12D); assay: AlphaLISA compound screening assay, KRAS-GCP protein format; conditions: AlphaLISA with cRAF, read-out: GCP-format IC50 (nM)/ Binding assay
Sequence of KRAS G12D GCP protein (His-tag-KRAS G12D) (P01116-2 other isoform, or with tags, fused parts or gaps G12D): as above

[6] = tested on: AGS cells; assay: 3D cell proliferation assay (CellTiter-Glo 3D), AGS; format: cell-based; conditions: 5 days, read-out: 3D Proliferation Inhibition AGS_IC50
Description: as §1, §2, §3

[7] = tested on: pERK in AGS cells; assay: ERK phosphorylation cell assay, AGS; format: cell-based; conditions: 3 hours compound incubation, read-out: pERK AGS_IC50
How it was run: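 AGS […] cells, seeded overnight, were treated with compound for 3 hours at 37° C. pERK was detected by in-cell immunofluorescence, with GAPDH as normalizer, using 800CW/680RD secondary antibodies. Mean relative p-ERK levels were fitted against log concentration, with DMSO as negative and 10 μM Reference as positive control.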

[8] = the molecule shown is the open-chain precursor
[9] = Homo sapiens, ASPC1, AsPC-1 cells

| IC50 ([3]; AsPC-1 cells) | IC50 [7] | IC50 [3, 9] | IC50 ([4]; Homo sapiens, ASPC1, 120 h) | IC50 ([6]; Homo sapiens, AGS, 120 h) | IC50 ([7]; Homo sapiens, AGS, 3 h) | Compound | other results |
| --- | --- | --- | --- | --- | --- | --- | --- |
| – | – | – | – | – | – | C#CCCCCC(=O)Nc1cc2c(N3C[C@H]4CC[C@@H](C3)N4C(=O)OC(C)(C)C)nc(OCC(F)(F)F)nc2c(F)c1-c1cc(OCOC)cc2ccc(F)c(C#C)c12 | ring closure, isolated yield ([8]; cc_pd bond, 15-membered ring, PdCl2(PPh3)2/CuI/I2, toluene/iPr2NH 1:1, 1.1 mM, 80.0 °C): 53% |
| – | – | – | – | – | – | COCOc1cc(-c2c(NC(=O)OCc3ccccc3)cc3c(N4C[C@H]5CC[C@@H](C4)N5C(=O)OC(C)(C)C)nc(OCC(F)(F)F)nc3c2F)c2c(CCCCCCO)c(F)ccc2c1 | ring closure, isolated yield ([8]; amine bond, 12-membered ring, PPh3/DIAD, THF, 32.5 mM, 65.0 °C): 34% |
| – | – | 0.108 µM | 0.434 µM | 0.148 µM | 0.061 µM | C[C@@]1(O)CCCN(c2nc(OC[C@@]34CCCN3C[C@H](F)C4)nc3c(F)c4c(cc23)NCCOCCc2c(F)ccc3cc(O)cc-4c23)C1 [Example 43B] | – |
| – | – | > 10 µM | 2.83 µM | 2.69 µM | 4.58 µM | C[C@H](Oc1nc(N2CCC[C@@](C)(O)C2)c2cc3c(c(F)c2n1)-c1cc(O)cc2ccc(F)c(c12)CCCCCN3)[C@@H]1CCCN1C [Example 35, 3,15-Difluoro-11-((R)-3-hydroxy-3-methylpiperidin-1-yl)-13-((S)-1-((S)-1-methylpyrrolidin-2-yl)ethoxy)-4,5,6,7,8,9-hexahydro-naphtho[1′,8′:4,5,6][1]azacycloundecino[2,3-g]quinazoline-17-ol] | – |
| – | – | – | – | – | – | O=C1CCCCCCCCCc2c(F)ccc3cc(O)cc(c23)-c2c(cc3c(N4CC5CCC(C4)N5)nc(OC[C@@]45CCCN4C[C@H](F)C5)nc3c2F)N1 [Example 11, 16-((1R,5S)-3,8-diazabicyclo[3.2.1]octan-3-yl)-3,20-difluoro-18-(((2R,7aS)-2-fluorotetrahydro-1H-pyrazin-7a(5H)-yl)methoxy)-22-hydroxy-5,6,7,8,9,10,11,12-octahydro-4H-naphtho[1′,8′:4,5,61][1]azacyclohexadecano[2,3-g]quinazolin-13(14H)-one] | IC50 [1]: 726 nM; IC50 [2]: 500 nM; IC50 [5]: 909 nM |
| 0.754 µM | 0.157 µM | 0.728 µM | 2.1 µM | 0.346 µM | 0.135 µM | C[C@@]1(O)CCCN(c2nc(OCC34CCCN3CC3(CC3)C4)nc3c(F)c4c(cc23)NCCCCCc2c(F)ccc3cc(O)cc-4c23)C1 (some centres unmarked) [Example 23] | – |
| 0.234 µM | 0.074 µM | 0.218 µM | 0.607 µM | 0.393 µM | 0.051 µM | C[C@@]1(O)CCCN(c2nc(OCC3(CN4CCOCC4)CC3)nc3c(F)c4c(cc23)NCCCCCc2c(F)ccc3cc(O)cc-4c23)C1 [Example 26] | – |

| Compound | IC50 ([3]; AsPC-1 cells) | IC50 [7] | IC50 [3, 9] | IC50 ([4]; Homo sapiens, ASPC1, 120 h) | IC50 ([6]; Homo sapiens, AGS, 120 h) | IC50 ([7]; Homo sapiens, AGS, 3 h) | other results |
| --- | --- | --- | --- | --- | --- | --- | --- |
| O=C1CCCCCc2c(F)ccc3cc(O)cc(c23)-c2c(cc3c(N4CC5CCC(C4)N5)nc(OC[C@@]45CCCN4C[C@H](F)C5)nc3c2F)N1 [Example 9B, 12-((1R,5S)-3,8-diazabicyclo[3.2.1]octan-3-yl)-3,16-difluoro-14-(((2R,7aS)-2-fluorotetrahydro-1H-pyrazin-7a(5H)-yl)methoxy)-18-hydroxy-5,6,7,8-tetrahydro-4H-naphtho[1′,8′:4,5,6][1]azacyclododecino[2,3-g]quinazolin-9(10H)-one] | 0.07 µM | 0.017 µM | – | – | – | – | IC50 [1]: 1.95 nM; IC50 [2]: 1.6 nM; IC50 [4]: 0.222 µM; IC50 [5]: 58.5 nM; IC50 [6]: 0.093 µM |
